The record followed here is publication PMC10910063, “Helical domain of hGBP3 cannot stimulate the second phosphate cleavage of GTP” (The Journal of Biological Chemistry, 2024).

In this assay the target is T1, hGBP1^311 (Homo sapiens, UniProt P32455).
T1 construct: gene GBP1; truncated, without the helical domain; purified as previously reported
T1 sequence (P32455 1-311): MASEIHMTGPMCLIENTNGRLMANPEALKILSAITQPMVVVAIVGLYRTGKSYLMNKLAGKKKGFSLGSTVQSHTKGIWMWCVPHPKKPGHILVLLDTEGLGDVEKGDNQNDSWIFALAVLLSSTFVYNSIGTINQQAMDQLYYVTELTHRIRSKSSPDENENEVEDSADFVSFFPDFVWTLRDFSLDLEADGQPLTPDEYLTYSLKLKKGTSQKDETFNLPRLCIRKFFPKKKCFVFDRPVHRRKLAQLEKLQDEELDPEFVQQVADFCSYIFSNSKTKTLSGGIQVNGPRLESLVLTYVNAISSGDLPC
The assay can be described thus: radiolabelled [α-32P]GTP, thin-layer chromatography. It is filed as biochemical. The settings on record: Tris pH 7.5, 5 mM MgCl2, 37 °C.

As to `Nc1nc2c(ncn2[C@@H]2O[C@H](COP(=O)(O)OP(=O)(O)OP(=O)(O)O)[C@@H](O)[C@H]2O)c(=O)[nH]1` [GTP], the “radiolabelled [α-32P]GTP, thin-layer chromatography” value is “the deletion of the helical domain of hGBP1 significantly reduced GMP production”.
